We go through two molecules from patent publication KR20190134073A, “셀레질린을 유효성분으로 포함하는 급성 골수성 백혈병의 예방 또는 치료용 약학 조성물” (충남대학교산학협력단, priority 2018, dated 2019).

Type in all cases: cell-based
Experiment [1] has as its system KG-1α cells (refractory or relapsed acute myeloid leukemia cells) [불응성 또는 재발성 급성 골수성 백혈병 세포(KG-1α)]. Put plainly: Cell viability (CCK-8) in refractory/relapsed AML cells KG-1α. Particulars: for viability at 500 µM / viability at 1000 µM / viability at 2000 µM / viability at 4000 µM: Homo sapiens, KG-1, 24 h, read-out: cell viability; for cell killing effect: KG-1α, 0.5, 1, 2 and 4 mM, 24 h, in words.

The test system of experiment [2] is U937 cells (acute myeloid leukemia cells) [급성 골수성 백혈병 세포(U937)]. As to the kind of experiment: cells. Particulars: for cell killing effect: acute leukemia cells (U937), 0.5, 1, 2 and 4 mM, 24 h, in words.
In experiment [3] the test system is K562 cells (chronic myeloid leukemia cells) [만성 골수성 백혈병 세포(K562)]. As to the kind of experiment: Cell viability (CCK-8) in CML cells K562. The conditions noted are these: K562 vs U937 or KG-1α; 0.5, 1, 2 and 4 mM; 24 h; in words, not shown in Table 1.
The subject of experiment [4] is KG-1α cells (refractory or relapsed acute myeloid leukemia cells) [불응성 또는 재발성 급성 골수성 백혈병 세포(KG-1α)]. Put plainly: Change of mitochondrial oxygen consumption rate in KG-1α cells. The conditions noted are these: 0, 0.5, 1, 2, 4 mM, 20 min, FIG. 2, in words.
For experiment [5] the test system is unchanged. Put plainly: Change of ATP production in KG-1α cells (ATPlite 1step kit). Particulars: 4 mM, 20 min, 37℃, control PBS, FIG. 3, in words.
[6] abbreviates: Homo sapiens, U-937, 24 h, read-out: cell viability.

As for `Nc1ccn([C@@H]2O[C@H](CO)[C@@H](O)[C@@H]2O)c(=O)n1` [시타라빈], in experiment [1], the viability at 500 µM amounted to 95.2%, the viability at 1000 µM turned out to be 96.9%, the viability at 2000 µM turned out to be 97.7% and the viability at 4000 µM stood at 95.3%. For the same molecule, the cell killing effect entry in experiment [1] is “세포 사멸 효과를 나타내지 않은”. Further, in experiment [2] (setting [6]), the viability at 500 µM is 45.3%, the viability at 1000 µM stood at 43.9%, the viability at 2000 µM was 40.9% and the viability at 4000 µM was found to be 40.7%. In experiment [2], the cell killing effect entry was “세포 사멸 효과는 우수하였으나”.

For the molecule `C#CCN(C)[C@H](C)Cc1ccccc1` [셀레질린, selegiline], in experiment [1], the viability at 500 µM was found to be 93.1%, the viability at 1000 µM turned out to be 86%, the viability at 2000 µM amounted to 63% and the viability at 4000 µM turned out to be 51.8%. Moreover, in experiment [1], the cell killing effect entry is “세포 사멸 효과가 우수하게 나타남”. In experiment [2], the cell killing effect result is given as “세포 사멸 효과를 모두 나타내는 것”. The “cell killing effect in K562 compared with U937 or KG-1α” value in experiment [3] is reported as “만성 골수성 백혈병 세포(K562)에 대한 세포 사멸 효과 보다는 급성 골수성 백혈병 세포(U937) 또는 불응성 또는 재발성 급성 골수성 백혈병 세포(KG-1α)에 대한 세포 사멸 효과가 우수하였다”. Moreover, the oxygen consumption rate entry in experiment [4] is recorded as “산소 소모율이 농도 의존적으로 감소함”. The ATP production entry in experiment [5] is “ATP 생성이 감소됨”.
